Measurements from ChEMBL document CHEMBL1151594, “Aromatic guanyl hydrazones: Synthesis, structural studies and in vitro activity against Trypanosoma cruzi” (1995).
Values belong to the compound of their own block, whether it stands above or below them.

How the values were obtained:
Format in all cases: functional
Trypanosoma cruzi = assay: In vitro inhibitory activity against trypomastigote form of Trypanosoma Cruzi.; settings: read-out: ID50 (the source's name)
Mus musculus [1] = organism: Mus musculus; assay: Effect on lysis of erythrocytes after 24 hr at 4 degree centigrade; Value given as 150-200
Mus musculus [2] = organism: Mus musculus; assay: Effect on lysis of erythrocytes after 24 hr at 4 degree centigrade; Value given as 500-600
Mus musculus [3] = organism: Mus musculus; assay: Effect on lysis of erythrocytes after 24 hr at 4 degree centigrade; Value given as 40-50
Mus musculus [4] = organism: Mus musculus; assay: Effect on lysis of erythrocytes after 24 hr at 4 degree centigrade; Value given as 300-400
Mus musculus [5] = organism: Mus musculus; assay: Effect on lysis of erythrocytes after 24 hr at 4 degree centigrade; Value given as 100-150
Mus musculus [6] = organism: Mus musculus; assay: Effect on lysis of erythrocytes after 24 hr at 4 degree centigrade; Value given as 75-100
Mus musculus [7] = organism: Mus musculus; assay: Effect on lysis of erythrocytes after 24 hr at 4 degree centigrade; Value given as 500-700
Mus musculus [8] = organism: Mus musculus; assay: Effect on lysis of erythrocytes after 24 hr at 4 degree centigrade; Value given as 400-500
Mus musculus [9] = organism: Mus musculus; assay: Effect on lysis of erythrocytes after 24 hr at 4 degree centigrade; Value given as 250-300
Mus musculus [10] = organism: Mus musculus; assay: Effect on lysis of erythrocytes after 24 hr at 4 degree Centigrade
Mus musculus [11] = organism: Mus musculus; assay: Effect on lysis of erythrocytes after 24 hr at 4 degree centigrade; Value given as 1200-1400
Mus musculus [12] = organism: Mus musculus; assay: Effect on lysis of erythrocytes after 24 hr at 4 degree centigrade; Value given as 50-75
Mus musculus [13] = organism: Mus musculus; assay: Effect on lysis of erythrocytes after 24 hr at 4 degree centigrade; Value given as 700-1000

SMILES: CN(C)c1ccc(/C=N/NC(=N)N)cc1.Cl
IC50 (Trypanosoma cruzi): 202 µM
Total lysis (Mus musculus [2]): 500 µM

SMILES: Cl.N=C(N)N/N=C/c1ccccc1N
IC50 (Trypanosoma cruzi): 261 µM
Total lysis (Mus musculus [2]): 500 µM

SMILES: Cl.N=C(N)N/N=C/c1ccccc1
Total lysis (Mus musculus [8]): 400 µM

SMILES: Cl.N=C(N)N/N=C/c1cccc([N+](=O)[O-])c1O
IC50 (Trypanosoma cruzi): 876 µM
Total lysis (Mus musculus [10]): >1400 µM

SMILES: Cl.N=C(N)N/N=C/c1cc2c(cc1N)OCO2
IC50 (Trypanosoma cruzi): 221 µM
Total lysis (Mus musculus [2]): 500 µM

SMILES: Cl.N=C(N)N/N=C/c1ccc(C(=O)O)cc1
IC50 (Trypanosoma cruzi): 573 µM
Total lysis (Mus musculus [11]): 1200 µM

SMILES: Cl.N=C(N)N/N=C/c1cc2c(cc1Br)OCO2
Total lysis (Mus musculus [12]): 50 µM

SMILES: Cl.N=C(N)N/N=C/c1ccc2c(c1)OCO2
Total lysis (Mus musculus [13]): 700 µM

SMILES: COc1cc(/C=N/NC(=N)N)ccc1O
IC50 (Trypanosoma cruzi): > 4800 µM

SMILES: COc1cccc(/C=N/NC(=N)N)c1OC.Cl
Total lysis (Mus musculus [6]): 75 µM

SMILES: Cl.N=C(N)N/N=C/c1ccc(Cl)cc1
Total lysis (Mus musculus [5]): 100 µM

SMILES: CN(C)c1ccc(C(=C2C=CC(=[N+](C)C)C=C2)c2ccc(N(C)C)cc2)cc1 [GENTIAN VIOLET]
IC50 (Trypanosoma cruzi): 536 µM

Further lines, with some results ahead:

IC50 (Trypanosoma cruzi): 55.9 µM
SMILES: Cl.N=C(N)N/N=C/c1ccc([N+](=O)[O-])cc1
Total lysis (Mus musculus [1]): 150 µM

IC50 (Trypanosoma cruzi): 41.4 µM
SMILES: COc1ccc(OC)c(/C=N/NC(=N)N)c1.Cl
Total lysis (Mus musculus [1]): 150 µM

IC50 (Trypanosoma cruzi): 86.3 µM
SMILES: COc1ccccc1/C=N/NC(=N)N.Cl
Total lysis (Mus musculus [1]): 150 µM

IC50 (Trypanosoma cruzi): 17.1 µM
SMILES: Cl.N=C(N)N/N=C/c1cc2c(cc1[N+](=O)[O-])OCO2
Total lysis (Mus musculus [3]): 40 µM

IC50 (Trypanosoma cruzi): 166 µM
SMILES: Cl.N=C(N)N/N=C/c1ccccc1O
Total lysis (Mus musculus [4]): 300 µM

IC50 (Trypanosoma cruzi): 33.8 µM
SMILES: COc1ccc(/C=N/NC(=N)N)c(OC)c1.Cl
Total lysis (Mus musculus [5]): 100 µM

IC50 (Trypanosoma cruzi): 34.7 µM
SMILES: CCOc1ccccc1/C=N/NC(=N)N.Cl
Total lysis (Mus musculus [6]): 75 µM

IC50 (Trypanosoma cruzi): 87.5 µM
SMILES: Cl.N=C(N)N/N=C/c1ccccc1[N+](=O)[O-]
Total lysis (Mus musculus [1]): 150 µM

IC50 (Trypanosoma cruzi): 183 µM
SMILES: Cl.N=C(N)N/N=C/c1cccc([N+](=O)[O-])c1
Total lysis (Mus musculus [7]): 500 µM

IC50 (Trypanosoma cruzi): 97.8 µM
SMILES: CCOc1cccc(/C=N/NC(=N)N)c1O.Cl
Total lysis (Mus musculus [1]): 150 µM

IC50 (Trypanosoma cruzi): 103 µM
SMILES: Cc1ccc(/C=N/NC(=N)N)cc1.Cl
Total lysis (Mus musculus [9]): 250 µM
